Results on one compound are retold here after patent US10513534B2, “2′-chloro nucleoside analogs for HCV infection” (priority 2012, dated 2019).

One data set concerns Zluc cells. Description: Cytotoxicity evaluation, CellTiter-Blue Cell Viability Assay. The following applies: Zluc cells, CellTiter-Blue. (In general: The colour change of resazurin is a common sign of viable cells or microbes.)
Data set [1] in a line: Stability in simulated intestinal fluid. The format is in vitro ADME. The following applies: simulated intestinal fluid with pancreatin, 100 μM, 2 hours, 37° C. The method, then:
(§1) Stability in Simulated Gastric and Intestinal Fluids: Simulated gastric and intestinal fluids containing pepsin and pancreatin respectively were prepared according to the U.S. Pharmacopoeia USP291 procedure(www.pharmacopeia.cn/v29240/usp29nf24s0_ris1s126.html). Each test compound (final concentration 100 μM) was incubated in duplicate in the appropriate fluid for 2 hours at 37° C. The samples were quenched with […] cold acetonitrile, vortexed for 30 seconds and then centrifuged at 16100×g for 10 min. The supernatants were analyzed by HPLC on a C-18 column with UV detection at 252 nm. The time zero samples were prepared by adding SGF or SIF fluid to the quenching solvent followed by the test compound. Stability of the compound was determined by peak area of the test compound after incubation and calculated as percent of the peak area observed at time zero.

Data set [2] is described as follows: Stability in fresh whole blood. The format is in vitro ADME. The following applies: human whole blood, 0.5 μM. The method, then: Stability of the test compounds was determined in fresh human whole blood with K2EDTA as the anticoagulant (stored refrigerated at 2-8° C. and used within 7 days of receipt). The experiment was conducted with three replicates for each time point. Whole blood, pre-incubated at 37° C. for 10-15 minutes, was fortified with a solution of test compound for a final concentration of 0.5 μM and mixed for 30 sec. At intervals (0, 0.5, 1 and 2 hr), three […] aliquots were combined with 200 μL (each) of an ice-cold solution of the internal standard (carbutamide 500 ng/mL in acetonitrile). The samples were vortexed for 30 sec and then centrifuged at 16100×g for 5 min. The supernatant was analyzed by LC-MS/MS. The MS peak area ratio of the test compound versus the internal standard was calculated and percent unchanged test compound was calculated for each time point using this ratio.

The nature of data set [3]: Liver triphosphate pharmacokinetics after single oral dose in cynomolgus monkeys. The format is in vivo. The following applies: 6 hours post dose, 10 mg/kg oral, normalized to 1 μmol/kg dose. The method, then:
For each compound, a single oral dose at 10 mg/kg in PEG 200 (dose volume 3 mL/kg) was administered to cynomolgus monkeys. Untreated animals were used for the collection of control liver. Plasma samples were collected at 0.5, 1, 2, 4, 6, 8, 12 and 24 hours for compound 37, diastereomer 2.
Liver samples were analyzed for the relevant nucleoside triphosphate by LC-MS/MS. […] Appropriate internal standard solution was added to the homogenate followed by neutralization with 20% ammonium hydroxide solution and addition of 500 μL 1% formic acid. The tissue samples were extracted by weak anion exchange solid phase extraction (SPE). Post extraction, the eluates were evaporated under nitrogen, followed by reconstitution before injection onto the LC-MS/MS system.

The nature of data set [4]: Stability in simulated gastric fluid. The format is in vitro ADME. The following applies: simulated gastric fluid with pepsin, 100 μM, 2 hours, 37° C. The method, then:
as §1

A further data set concerns Huh-7 cells. As to the kind of experiment: Release of active metabolite in Huh-7 cells. The format is in vitro ADME. The method, then:
Huh-7 cells were plated in 1 mL culture medium (DMEM, containing glucose, L-glutamine and sodium pyruvate, 10% FBS, 100 IU/mL penicillin, 100 μg/mL streptomycin, 2 mM GlutaMAX, 1% MEM non-essential amino acids) at the concentration 0.8, 0.4 and 0.2 million cells per well on 6 well plates for 24, 48 and 72 hr treatment, respectively. Plated cells were incubated overnight at 37° C. in an incubator.
The following morning test compound was diluted to 20 μM from a stock solution in DMSO in fresh culture medium pre-warmed to 37° C. and 1 mL of the solution/well was added to cells. A final medium volume per well was 2.0 mL, test compound concentration in well was 10 μM and final DMSO concentration was 0.1%.
After 24, 48 or 72 hr, the medium was carefully removed and cell monolayers were washed twice with 2 mL ice-cold PBS per well. Following the last wash, all PBS was carefully removed and 1.0 mL of extraction solution (ice-cold 70% methanol) added. The plate was tightly covered with Parafilm, plastic plate cover and Parafilm again and an intracellular content was extracted at −20° C. for 24 hr.
After 24 hr the extracts were transferred into polypropylene microfuge tubes and dry on a refrigerated centrivap concentrator. Dry residues were reconstituted in 250 μL of HPLC-grade water and centrifuged at 16,000×g for 10 min. Aliquots (100 μL each) of the supernatants were transferred into a 96 well plate and internal standard (4 ng/mL final concentration) was added as the internal standard (IS) for LC-MS/MS analysis.

The test system of a further data set is fresh mouse hepatocytes. Description: Release of active metabolite in fresh mouse hepatocytes. The format is in vitro ADME. The following applies: 10 μM. The method, then: (§2) Plates of fresh human and mouse hepatocytes were obtained on ice. The medium was removed and replaced with hepatocyte culture medium (William's E supplemented with penicillin-streptomycin, 1% L-glutamine, 1% insulin-transferrin-selenium and 0.1 μM Dexamethasone (Invitrogen) or with Invitro GRO HI medium complemented with Torpedo antibiotics (Celsis)). Cells were left overnight in an incubator at 37° C. to acclimatize to culture and the medium.
(§3) Hepatocyte incubations were conducted at a final volume of 0.5 mL hepatocyte culture medium/well (0.8 million cells/well for human and 0.5 million cells/well for mouse; 12 well plate no overlay, collagen coat). Culture medium from overnight incubation of cells was removed and replaced with fresh medium, pre-warmed to 37° C., containing 10 μM of test compound from a stock solution in DMSO (final DMSO concentration was 0.1%). At each specific time point, incubation medium was removed and cell monolayers were carefully washed two times with ice-cold PBS. Following the last wash, all PBS was carefully removed and 1.0 mL of extraction solution (ice-cold 70% methanol/30% water) added. Cells were scraped off and suspended in the extraction solution, transferred to 2 mL polypropylene microfuge tubes and intracellular contents extracted overnight at −20° C.
(§4) After the overnight treatment the cellular extracts were prepared by centrifugation at 16,000×g for 10 min to remove cellular debris. The remaining sample was then dried using a refrigerated centrivap concentrator. Dry extracts were reconstituted in 1000 μL of HPLC-grade water and centrifuged at 16,000×g for 10 min. Aliquots (100 μL each) of the supernatant were transferred into a 96 well plate and internal standard (4 ng/mL final concentration) was added as the internal standard (IS) for LC-MS/MS analysis.
(§5) The incubation time points were 6, 24 and 48 hours for human hepatocytes and 1, 4, 8, 12 and 24 hours for mouse hepatocytes.

A further data set has as its system fresh human hepatocytes. As to the kind of experiment: Release of active metabolite in fresh human hepatocytes. The format is in vitro ADME. The following applies: 10 μM. The method, then: as §2, §3, §4, §5

Molecules are shown by their SMILES.

As usually defined, the CC50 is the concentration at which the toxic effect on the cells reaches its halfway point.

In the data set with Zluc cells, `CC(C)OC(=O)[C@H](C)NP(=O)(OC[C@H]1O[C@@H](n2ccc(=O)[nH]c2=O)[C@](C)(Cl)[C@@H]1O)Oc1ccccc1` (single isomer, unassigned) [Compound 40ii Diastereomer 2] had a cytotoxic concentration (CC50) of more than 50 µM. For the same compound, the “SIF stability (percent remaining)” value in data set [1] is given as “+ (+ ≤ 25%)”. In data set [2], the “WB_Human (37° C.; 2 hr) stability (percent remaining)” value is “++++ (75% < ++++)”. Also, the “Nucleoside triphosphate in Liver C6” value in data set [3] is recorded as “++++ (100 < ++++)”. For the same compound, in data set [4], the “SGF stability (percent remaining)” value is on record as “++++ (75% < ++++)”. The “Huh-7 TP AUC” value in the data set with Huh-7 cells (10 μM) was “++++ (1500 < ++++)”. In the data set with Huh-7 cells (10 μM test compound), the “Huh-7 TP Cmax” value was “++++ (100 < ++++)”. Further, the “Huh-7 TP (24 hr)” value in the data set on Huh-7 cells (10 μM, 24 hr) is listed as “++++ (100 < ++++)”. Also, the “Huh-7 TP (48 hr)” value in the data set on Huh-7 cells (10 μM, 48 hr) is listed as “++++ (100 < ++++)”. Besides, the “Huh-7 TP (72 hr)” value in the data set with Huh-7 cells (10 μM, 72 hr) was “++++ (100 < ++++)”. For the same compound, in the data set on fresh mouse hepatocytes, the “MsH AUC” value is “++++ (1500 < ++++)” and the “MsH Cmax” value is listed as “+++ (50 < +++ ≤ 100)”. Besides, in the data set with fresh human hepatocytes, the “FHH TP AUC” value is “++++ (1500 < ++++)” and the “FHH TP Cmax” value is on record as “++++ (100 < ++++)”. Further, in the data set on fresh human hepatocytes (6 hr), the “FHH TP (6 hr)” value is recorded as “++++ (100 < ++++)”. In addition, the “FHH TP (24 hr)” value in the data set on fresh human hepatocytes (24 hr) is “+++ (50 < +++ ≤ 100)”. The “FHH TP (48 hr)” value in the data set with fresh human hepatocytes (48 hr) is “+++ (50 < +++ ≤ 100)”.
